From ChEMBL document CHEMBL3351859, “Indoleamine 2,3-dioxygenase inhibitors: potential treatment for cancer, sepsis, and more” (ACS Med Chem Lett, 2014)
pIC50: −log10 of the molar value.

The compounds below were run against Indoleamine 2,3-dioxygenase 1 (Homo sapiens, UniProt P14902) (assay: Inhibition of intracellular IDO1 activity in human HeLa cells assessed as L-kynurenine production by Ehrlichs test).
Sequence of Indoleamine 2,3-dioxygenase 1 (P14902 whole entry): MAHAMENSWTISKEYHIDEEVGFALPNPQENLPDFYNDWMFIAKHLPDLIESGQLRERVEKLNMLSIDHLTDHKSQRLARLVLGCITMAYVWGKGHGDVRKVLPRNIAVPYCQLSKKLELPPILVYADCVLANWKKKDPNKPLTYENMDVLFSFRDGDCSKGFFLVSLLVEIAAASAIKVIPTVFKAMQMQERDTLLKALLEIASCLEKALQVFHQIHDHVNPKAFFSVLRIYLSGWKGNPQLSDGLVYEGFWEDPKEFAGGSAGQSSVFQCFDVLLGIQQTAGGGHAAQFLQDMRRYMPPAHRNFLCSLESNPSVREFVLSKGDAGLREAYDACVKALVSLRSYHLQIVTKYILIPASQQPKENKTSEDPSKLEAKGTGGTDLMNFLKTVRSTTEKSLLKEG
Format: cell-based
A pIC50 greater than 7.00 was found for `Cc1cc(F)ccc1Nc1c[nH]nn1` in this work.
A pIC50 of 7.00 was found for `N#Cc1cc(Nc2cn[nH]n2)ccc1Cl` in this work.
A pIC50 of 6.00 was found for `O=C(O)C1CC(Cc2cc(Cl)ccc2Nc2cn[nH]n2)C1` (stereo unspecified) in this work.
A pIC50 of 7.00 was found for `CCc1cc(Nc2cnn[nH]2)ccc1Cl` in this work.
A pIC50 of 6.00 was found for `CS(=O)(=O)NCc1cc(Cl)ccc1Nc1cnn[nH]1` in this work.
A pIC50 greater than 7.00 was found for `CCc1cc(Cl)ccc1Nc1cnn[nH]1` in this work.
